From the supplement of paper PMC10307832

Assays:
Assay in all cases: relative viability (nuclei count vs DMSO), 5 days (fraction); higher = more cells survive
Trametinib + Vorinostat = compound: CC(=O)Nc1cccc(-n2c(=O)n(C3CC3)c(=O)c3c(Nc4ccc(I)cc4F)n(C)c(=O)c(C)c32)c1 [Trametinib] + O=C(CCCCCCC(=O)Nc1ccccc1)NO [Vorinostat] (partner 1 µM)
In short: (§1)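 Lung cancer cell lines in 1536-well plates were dosed by pin tool the day after seeding, either with one drug alone or with a fixed anchor-drug dose plus five library-drug doses (not always all listed) in √10 steps. After 5 days, cells were fixed and their nuclei stained in one step (final 0.05% Triton X-100, 1% formaldehyde, 1 ug/ml Hoechst), then counted on 4× images. Relative viability is the nuclei count in treated wells divided by that in vehicle wells. Values are medians of duplicate plates.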

Trametinib + AZD7762 = compound: CC(=O)Nc1cccc(-n2c(=O)n(C3CC3)c(=O)c3c(Nc4ccc(I)cc4F)n(C)c(=O)c(C)c32)c1 [Trametinib] + NC(=O)Nc1cc(-c2cccc(F)c2)sc1C(=O)N[C@H]1CCCNC1 [AZD7762] (partner 0.2 µM)
In short: as §1

Trametinib + Palbociclib = compound: CC(=O)Nc1cccc(-n2c(=O)n(C3CC3)c(=O)c3c(Nc4ccc(I)cc4F)n(C)c(=O)c(C)c32)c1 [Trametinib] + CC(=O)c1c(C)c2cnc(Nc3ccc(N4CCNCC4)cn3)nc2n(C2CCCC2)c1=O [Palbociclib] (partner 0.5 µM)
In short: as §1

[1] = compound: CN1C=C(C2=CC=CC=C21)/C=C\3/C4=C(C=CC=N4)NC3=O + Cc1cc(Nc2cc(N3CCN(C)CC3)nc(Sc3ccc(NC(=O)C4CC4)cc3)n2)n[nH]1 [Tozasertib] (partner 0.1 µM)
In short: as §1

| Cell Line | relative viability (Trametinib + Vorinostat; first compound 0.0025 µM) | relative viability (Trametinib + Vorinostat; first compound 0.007906 µM) | relative viability (Trametinib + Vorinostat; first compound 0.025 µM) | relative viability (Trametinib + Vorinostat; first compound 0.07906 µM) | relative viability (Trametinib + Vorinostat; first compound 0.25 µM) | relative viability (Trametinib + AZD7762; first compound 0.0025 µM) | relative viability (Trametinib + AZD7762; first compound 0.007906 µM) | relative viability (Trametinib + AZD7762; first compound 0.025 µM) | relative viability (Trametinib + AZD7762; first compound 0.07906 µM) | relative viability (Trametinib + AZD7762; first compound 0.25 µM) | relative viability (Trametinib + Palbociclib; first compound 0.0025 µM) | relative viability (Trametinib + Palbociclib; first compound 0.007906 µM) | relative viability (Trametinib + Palbociclib; first compound 0.025 µM) | relative viability (Trametinib + Palbociclib; first compound 0.07906 µM) | relative viability (Trametinib + Palbociclib; first compound 0.25 µM) | relative viability ([1]; first compound 0.02 µM) | relative viability ([1]; first compound 0.06325 µM) | relative viability ([1]; first compound 0.2 µM) | relative viability ([1]; first compound 0.6325 µM) | relative viability ([1]; first compound 2 µM) |
| --- | --- | --- | --- | --- | --- | --- | --- | --- | --- | --- | --- | --- | --- | --- | --- | --- | --- | --- | --- | --- |
| LU99A | 0.546 | 0.503 | 0.291 | 0.397 | 0.254 | 0.365 | 0.353 | 0.2 | 0.214 | 0.179 | 0.401 | 0.436 | 0.335 | 0.355 | 0.243 | 0.252 | 0.264 | 0.278 | 0.257 | 0.256 |
| LXF-289 | 0.711 | 0.587 | 0.538 | 0.529 | 0.55 | 0.994 | 0.906 | 0.818 | 0.71 | 0.534 | 0.526 | 0.508 | 0.423 | 0.429 | 0.379 | 0.14 | 0.195 | 0.217 | 0.213 | 0.182 |
| NCI-H23 | 0.501 | 0.537 | 0.277 | 0.323 | 0.126 | 0.256 | 0.233 | 0.232 | 0.158 | 0.191 | 0.472 | 0.414 | 0.268 | 0.209 | 0.175 | 0.48 | 0.365 | 0.304 | 0.328 | 0.227 |
| NCI-H322M | 0.797 | 0.691 | 0.62 | 0.557 | 0.555 | 0.602 | 0.436 | 0.482 | 0.414 | 0.425 | 0.448 | 0.428 | 0.404 | 0.43 | 0.431 | 0.46 | 0.5 | 0.485 | 0.507 | 0.639 |
| NCI-H358 | 0.367 | 0.27 | 0.266 | 0.205 | 0.154 | 0.388 | 0.39 | 0.331 | 0.264 | 0.292 | 0.133 | 0.122 | 0.147 | 0.129 | 0.117 | 0.0895 | 0.11 | 0.109 | 0.0977 | 0.117 |
| NCI-H441 | 0.819 | 0.797 | 0.722 | 0.749 | 0.608 | 1.15 | 0.972 | 0.734 | 0.658 | 0.618 | 0.154 | 0.172 | 0.132 | 0.147 | 0.132 | 0.67 | 0.607 | 0.651 | 0.572 | 0.567 |
| NCI-H460 | 0.621 | 0.482 | 0.376 | 0.12 | 0.0929 | 0.731 | 0.751 | 0.739 | 0.505 | 0.338 | 0.152 | 0.0859 | 0.0921 | 0.018 | 0.0172 | 0.458 | 0.403 | 0.448 | 0.363 | 0.0797 |
| NCI-H522 | 0.823 | 0.798 | 0.836 | 0.763 | 0.671 | 0.875 | 1.01 | 0.703 | 0.69 | 0.88 | 1.01 | 0.936 | 0.693 | 0.859 | 0.668 | 0.562 | 0.575 | 0.518 | 0.283 | 0.556 |
| NCI-H647 | 0.634 | 0.562 | 0.642 | 0.465 | 0.196 | 0.543 | 0.3 | 0.262 | 0.174 | 0.165 | 0.374 | 0.344 | 0.334 | 0.16 | 0.108 | 0.327 | 0.345 | 0.206 | 0.321 | 0.215 |
| NCI-H650 | 0.528 | 0.585 | 0.392 | 0.569 | 0.667 | 1.06 | 1.15 | 1.03 | 0.614 | 0.655 | 0.421 | 0.469 | 0.487 | 0.535 | 0.374 | 0.643 | 0.674 | – | 0.829 | 0.757 |
| NCI-H727 | 0.961 | 0.851 | 0.424 | 0.387 | 0.382 | 0.356 | 0.386 | 0.315 | 0.279 | 0.355 | 0.577 | 0.513 | 0.41 | 0.382 | 0.384 | 0.554 | 0.447 | 0.59 | 0.636 | 0.633 |
| NCI-H838 | 0.682 | 0.591 | 0.598 | 0.631 | 0.568 | 0.943 | 0.827 | 0.858 | 0.858 | 0.697 | 0.207 | 0.183 | 0.162 | 0.159 | 0.202 | 0.264 | 0.223 | 0.259 | 0.294 | 0.257 |
| NCI-H1355 | 0.605 | 0.524 | 0.341 | 0.377 | 0.291 | 0.747 | 0.706 | 0.539 | 0.599 | 0.591 | 0.353 | 0.321 | 0.217 | 0.225 | 0.224 | 0.52 | 0.599 | 0.523 | 0.412 | 0.368 |
| NCI-H1395 | 0.78 | 0.627 | 0.593 | 0.415 | 0.384 | 0.399 | 0.377 | 0.41 | 0.361 | 0.367 | 0.56 | 0.562 | 0.517 | 0.567 | 0.489 | 0.703 | 0.72 | 0.681 | 0.721 | 0.821 |
| NCI-H1437 | 0.813 | 0.642 | 0.516 | 0.447 | 0.377 | 1.13 | 0.981 | 0.625 | 0.466 | 0.454 | 0.319 | 0.226 | 0.204 | 0.196 | 0.211 | 0.39 | 0.427 | 0.417 | 0.438 | 0.463 |
| NCI-H1648 | 0.422 | 0.479 | 0.488 | 0.3 | 0.376 | 0.69 | 0.716 | 0.879 | 0.78 | 0.441 | 0.251 | 0.284 | 0.278 | 0.336 | 0.303 | – | 0.435 | 0.435 | 0.387 | 0.372 |
| NCI-H1651 | 0.546 | 0.546 | 0.466 | 0.505 | 0.505 | 0.454 | 0.427 | 0.352 | 0.439 | 0.186 | 0.489 | 0.501 | 0.51 | 0.459 | 0.432 | 0.799 | 0.673 | 0.664 | 0.698 | 0.728 |
| NCI-H1666 | 0.989 | 0.946 | 0.871 | 0.861 | 0.713 | 0.726 | 0.735 | 0.669 | 0.637 | 0.665 | 0.695 | 0.662 | 0.665 | 0.66 | 0.686 | 0.596 | 0.546 | 0.61 | 0.609 | 0.603 |
| NCI-H1734 | 0.812 | 0.802 | – | 0.747 | 0.356 | 0.476 | 0.451 | – | 0.509 | 0.369 | 0.337 | 0.353 | – | 0.292 | 0.241 | 0.281 | 0.311 | – | 0.295 | 0.284 |
| NCI-H1755 | 0.829 | 0.698 | 0.686 | 0.735 | 0.747 | 0.457 | 0.405 | 0.428 | 0.426 | 0.352 | 0.425 | 0.406 | 0.384 | 0.392 | 0.365 | 0.56 | 0.557 | 0.605 | 0.502 | 0.509 |
| NCI-H1793 | 0.579 | 0.432 | 0.317 | 0.317 | 0.221 | 0.44 | 0.466 | 0.252 | 0.335 | 0.264 | 0.277 | 0.242 | 0.225 | 0.213 | 0.192 | 0.306 | 0.37 | 0.296 | 0.258 | 0.197 |
| NCI-H1915 | 0.558 | 0.575 | 0.466 | 0.368 | 0.289 | 0.702 | 0.715 | 0.405 | 0.365 | 0.218 | 0.477 | 0.382 | 0.196 | 0.19 | 0.143 | 0.385 | 0.432 | 0.482 | 0.424 | 0.484 |
| NCI-H1944 | 0.556 | 0.387 | 0.382 | 0.348 | 0.28 | 0.511 | 0.39 | 0.344 | 0.366 | 0.311 | 0.316 | 0.246 | 0.223 | 0.207 | 0.163 | 0.234 | 0.246 | – | 0.234 | 0.21 |
| NCI-H1975 | 0.643 | 0.542 | 0.48 | 0.456 | 0.351 | 0.69 | 0.551 | 0.473 | 0.421 | 0.401 | 0.543 | 0.349 | 0.506 | 0.19 | 0.129 | 0.688 | 0.753 | 0.641 | 0.42 | 0.245 |
| NCI-H1993 | 0.681 | 0.553 | 0.339 | 0.576 | 0.304 | 0.694 | 0.716 | 0.395 | 0.504 | 0.472 | 0.553 | 0.526 | 0.548 | 0.61 | 0.448 | 0.565 | 0.565 | 0.552 | 0.652 | 0.559 |
| NCI-H2085 | 0.695 | 0.718 | 0.501 | 0.609 | 0.563 | 0.81 | 0.752 | 0.391 | 0.518 | 0.541 | 0.494 | 0.421 | 0.371 | 0.395 | 0.406 | 0.803 | 0.734 | 0.797 | 0.622 | 0.575 |
| NCI-H2087 | 0.595 | 0.368 | 0.463 | 0.237 | 0.12 | 1.26 | 1.38 | 0.633 | 0.313 | 0.324 | 0.162 | 0.137 | 0.127 | 0.111 | 0.0967 | 0.227 | 0.245 | 0.249 | 0.189 | 0.212 |
